Where “and” joins values, the source holds several entries; their conditions need not be identical. Equal entries are not always repeated.
Columns and labels:
[1] = 7-day PK study in healthy rats; assay type: in vivo; conditions: healthy rats
Protocol: Samples were prepared as described in [10] with modifications to accommodate the small tissue sizes and enhance the detection sensitivity. Quantitative liquid chromatography electrospray-ionization tandem mass spectrometry (LCMS/MS) analysis was performed on a Shimadzu 20A series HPLC (LC)-Applied Biosystems/MDS Sciex API 3200 QTrap or API 4000 QTrap tandem-mass spectrometer (MS/MS) as described earlier. The use of heptafluorobutyric acid (HFBA) mobile phase modifier as an ion-pairing agent increases the overall lipophilicity and volatility, which increases the retention and ionization efficiency of the analytes, affording an abundance of HFBA-associated ions. […] (OH)FeTnBuOE-2-PyP^4+ was prepared as described for other Fe(III) N-alkylpyridylporphyrins and analogous (H2O)MnTnBuOE-2-PyP^5+ [13, 16]. The solvents employed were: A = 95:5 H2O:MeCN (0.1% HFBA); B = MeCN (0.1% HFBA). […] With the chosen solvent system, all four atropoisomers collapsed into a single peak, enhancing the sensitivity of the method to as low as 0.5 nM (nanomoles per L of tissue homogenate). Analyses were performed using a Phenomenex Luna C18 guard cartridge (ID × L, 2 × 4 mm) only. […] Their structures are also shown. […] The response was calculated as the ratio between the standard peak area and the internal standard peak area. We conducted a 7-day rat PK study under conditions identical to those that afforded the therapeutic efficacy of MnTnHex-2-PyP^5+ in an earlier study. […] Afterwards, blood/plasma samples were collected before injection and at 2 h after 24 h-injections (every second injection). Liver and brains were taken for analysis 12 h after the last injection. Three rats were used per compound. After the single (first) SC injection, we obtained a prototypical PK profile observed in the case of all Mn(III) ortho […] In contrast, although similarly absorbed after SC injection, the […] Our understanding is that the “elimination” process is actually a fast distribution/retention into/by the liver, kidney, and spleen, a multi-compartmental process responsible for early decay of the plasma concentration, observed for all Mn porphyrin analogs investigated.

[2] = 2-h PK study in rats that underwent MCAO; assay type: in vivo; conditions: rats after 90-min MCAO, 0.225 mg/kg IV + 0.225 mg/kg SC, 2 h after reperfusion
Protocol: Samples were prepared as described in [10] with modifications to accommodate the small tissue sizes and enhance the detection sensitivity. Quantitative liquid chromatography electrospray-ionization tandem mass spectrometry (LCMS/MS) analysis was performed on a Shimadzu 20A series HPLC (LC)-Applied Biosystems/MDS Sciex API 3200 QTrap or API 4000 QTrap tandem-mass spectrometer (MS/MS) as described earlier. The use of heptafluorobutyric acid (HFBA) mobile phase modifier as an ion-pairing agent increases the overall lipophilicity and volatility, which increases the retention and ionization efficiency of the analytes, affording an abundance of HFBA-associated ions. […] (OH)FeTnBuOE-2-PyP^4+ was prepared as described for other Fe(III) N-alkylpyridylporphyrins and analogous (H2O)MnTnBuOE-2-PyP^5+ [13, 16]. The solvents employed were: A = 95:5 H2O:MeCN (0.1% HFBA); B = MeCN (0.1% HFBA). […] With the chosen solvent system, all four atropoisomers collapsed into a single peak, enhancing the sensitivity of the method to as low as 0.5 nM (nanomoles per L of tissue homogenate). Analyses were performed using a Phenomenex Luna C18 guard cartridge (ID × L, 2 × 4 mm) only. […] Their structures are also shown. […] The response was calculated as the ratio between the standard peak area and the internal standard peak area. Another possible cause for the failure of therapeutics in stroke may be their slow accumulation in the brain, i.e., not being there in time to prevent the burst of reactive species and rapid activation of transcription factors, which perpetuate oxidative stress. We therefore conducted short-term 2-h PK to evaluate how fast post-MCAO our drug gets into the brain. Three rats per compound were subjected to 90 min of transient right MCAO as reported. The first dose of 0.225 mg/kg was given IV via the […] at 5 min after ischemia/reperfusion. The second dose of 0.225 mg/kg was given SC at 30 min after reperfusion. Blood was collected at 2 h and plasma harvested. Rats were perfused with heparin saline (2000 IU/500 mL) until no reddish fluid came out from the right atrium. Then, the liver, and left and right brain were collected and placed on dry ice and stored at -20 °C. Plasma, liver, and brain were analyzed by LCMS/MS.

rat MCAO stroke model = test: 7-day rat MCAO efficacy study; assay type: in vivo, rats; conditions: 0.225 mg/kg twice per day 7 days
Protocol: The 7-day rat MCAO study was done as described in [9]. The 250–275 g Wistar rats were used as another species is a requirement for preclinical stroke research. The duration of the right MCAO was 90 min. […] The first dose was given IV slowly via the […] at 5 min after ischemia/reperfusion. The following doses were given SC. At day 7 post-injury, a person blinded to the treatment groups assessed the neurological deficit and then brains were harvested for infarct volume measurements.

[3] = cited from earlier work
mice [4] = conditions: mouse, in vivo, ip, 10 mg/kg; cited from earlier work
mice [5] = conditions: mice, 5 mg/kg IP injection; cited from earlier work
[6] = mouse, in vivo; cited from earlier work
[7] = in vivo; cited from earlier work
[8] = system: rat middle cerebral artery occlusion (MCAO) stroke model; conditions: cited from earlier work
[9] = SC 0.225 mg/kg BID 7 days, 12 h after last injection
[10] = SC 0.225 mg/kg BID 7 days, WinNonlin simulation

## CCCCCC[n+]1ccccc1-c1c2nc(c(-c3cccc[n+]3CCCCCC)c3ccc([n-]3)c(-c3cccc[n+]3CCCCCC)c3nc(c(-c4cccc[n+]4CCCCCC)c4ccc1[n-]4)C=C3)C=C2.[Mn+3] [MnHex, Mn(III) meso-tetrakis(N-n-hexylpyridinium-2-yl)porphyrin]
[1]; SC 0.225 mg/kg BID 7 days
  brain level at end of 7-day treatment: 25 nM
[1]; [9]
  brain concentration at end of 7-day treatment: 0.025 µM
  end-of-treatment 7-day liver tissue level: 21 µM
[1]; [10]
  average plasma concentration (Caver): 0.076 µM
  plasma AUC: 11.5 µM·h
[1]; SC 0.225 mg/kg BID 7 days, WinNonlin simulation, read-out: Cmax at steady state, plasma
  Cmax: 220 nM
[1]; SC 0.225 mg/kg, first 12 h
  elimination from plasma after single (first) SC injection: eliminated from plasma within 12 h
[1]; SC 0.225 mg/kg, estimated from simulation, 0.225 mg/kg
  plasma half-life: 1.4 h and ~ 1.4 h
[2]
  level in injured (right) brain hemisphere: ~ 35 nM
Rat MCAO stroke model
  p, cortex infarct volume vs vehicle: 0.046
  p, neuroscore vs vehicle: 0.016
  p, subcortex infarct volume vs vehicle: 0.049
  p, total infarct volume vs vehicle: 0.029
Rat MCAO stroke model; first dose IV, then SC
  neurological deficit (neuroscore and infarct volume): significantly improved
[3]
  log kcat(O2^•−), log of rate constant for catalysis of O2^•− dismutation: 7.48
Mice [4]
  blood pressure drop: does cause a blood pressure drop
Mice [5]
  toxicity / death of mice: mice died
[6]
  accumulation in mitochondria relative to cytosol: 3.6 fold
[7]
  blood–brain barrier crossing: crosses the BBB
[8]
  infarct size in earlier 7-day MCAO study: significantly reduced the infarct size
[8]; rat MCAO stroke model and subarachnoid hemorrhage
  neurologic outcome, infarct size and inflammation: improved the neurologic outcome and decreased infarct size and inflammation
[8]; rat, in vivo
  brain level in earlier 7-day MCAO study: ~ 30 nM
